Laboratory results from PMC9484092, “Three novel leaderless bacteriocins have antimicrobial activity against gram-positive bacteria to serve as promising food biopreservative” (Microbial Cell Factories, 2022).
No end group written: not given here. *: point of attachment. For = O=C*

Legend:
proteinase K = proteinase K (Parengyodontium album, UniProt P06873); assay: Protease stability, residual antimicrobial activity; assay type: in vitro ADME; conditions: 4× MIC mixed 1:1 (v/v) with proteinase K 1 mg/mL (≥ 40 U/mg), 37 °C, 2 h; agar well diffusion, B. cereus ATCC 14579; triplicate
Sequence of proteinase K (P06873 106-384): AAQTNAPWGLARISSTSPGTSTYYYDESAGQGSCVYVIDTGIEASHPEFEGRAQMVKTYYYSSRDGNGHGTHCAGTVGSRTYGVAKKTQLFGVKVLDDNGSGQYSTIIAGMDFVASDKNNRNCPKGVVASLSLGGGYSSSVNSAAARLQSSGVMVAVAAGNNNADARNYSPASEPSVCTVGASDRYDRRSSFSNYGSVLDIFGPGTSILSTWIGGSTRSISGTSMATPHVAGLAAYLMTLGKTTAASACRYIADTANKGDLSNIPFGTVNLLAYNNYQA
Procedure: (§1) Antibacterial activity against various indicator strains were determined by the agar well diffusion method. Briefly, each of the indicator strains (10^6 CFU/mL) was spread on a LB agar plate (45 °C) with wells (diameter = 6 mm). Then, 50 μL bacteriocin solution was added to the wells. The plate was kept at 4 °C for 2 h and subsequently incubated at a temperature suitable for the growth of the indicator strains for 12 h, followed by the measurement of inhibition zone to assess the antimicrobial activity.
Nisin A was commercial nisin A (Sigma-Aldrich, Shanghai, China) purified by HPLC as described above. The purity of nisin A and thucin A1 was all greater than 95% based on the ratio of absorption peak area at 210 nm. The stability assay was performed by previously described method with some modifications. To compare the pH stability of thucin A1 and nisin A, the bacteriocin solutions (1× , 2× , 4× , 8× MIC) were adjusted to pH 2.0, 3.0, 4.0, 5.0, 6.0, 7.0, 8.0, 9.0, 10.0, 11.0 and 12.0 with 0.5 M NaOH or 0.5 M HCl solution, followed by incubation at 37 °C for 4 h. The residual antimicrobial activity was tested after neutralizing the sample to pH 6.0. […] The indicator strain used in this experiment was B. cereus ATCC 14579 and the antimicrobial activity was determined with the agar well diffusion method as described above. […]

[1] = system: Bacillus thuringiensis P86; assay: MIC, agar well diffusion; assay type: cell-based; conditions: Bacillus thuringiensis P86 (thucin A1 producer strain), LB, lowest concentration forming a clear zone, highest concentration 60 μM
Procedure: as §1
(§2) The minimum inhibitory concentrations (MICs) of the bacteriocins against various indicator strains were determined by a previously described method. Briefly, the antimicrobial activities of different final concentrations bacteriocin solutions were measured by the agar well diffusion method described above. The MIC was defined at the lowest concentration of samples that could form a clear zone of inhibition.

[2] = system: Glutamicibacter arilaitensis HCX33; assay type: cell-based; conditions: 2 h
Procedure: as §1, §2

[3] = system: Bacillus cereus ATCC 14579; assay type: cell-based; conditions: ATCC 14579, 12 h
Procedure: as §1, §2

[4] = system: Listeria monocytogenes LM201; assay type: cell-based; conditions: LM201, 2 h
Procedure: as §1, §2

[5] = system: Listeria monocytogenes LM605; assay type: cell-based; conditions: LM605, 2 h
Procedure: as §1, §2

[6] = system: Staphylococcus aureus ATCC 43300; assay type: cell-based; conditions: ATCC 43300, 2 h
Procedure: as §1, §2

[7] = system: Lysinibacillus fusiformis ZZY15-1; assay type: cell-based; conditions: 2 h
Procedure: as §1, §2

Bacillus subtilis 168 = assay type: cell-based; conditions: 168, 2 h
Procedure: as §1, §2

Bacillus firmus DS-1 = assay type: cell-based; conditions: 2 h
Procedure: as §1, §2

Bacillus siamensis HCX05 = assay type: cell-based; conditions: 2 h
Procedure: as §1, §2

[8] = system: Staphylococcus succinus SYY04; assay type: cell-based; conditions: 2 h
Procedure: as §1, §2

Bacillus cereus UW85 = assay type: cell-based; conditions: UW85, 2 h
Procedure: as §1, §2

Rhodococcus sp. ZCH08 = assay type: cell-based; conditions: 2 h
Procedure: as §1, §2

[9] = system: Bacillus thuringiensis BMB171; assay type: cell-based; conditions: 2 h
Procedure: as §1, §2

Bacillus simplex SYY08 = assay type: cell-based; conditions: 2 h
Procedure: as §1, §2

Bacillus subtilis Bsn5 = assay type: cell-based; conditions: Bsn5, 2 h
Procedure: as §1, §2

Bacillus pumilus SCG1 = assay type: cell-based; conditions: 2 h
Procedure: as §1, §2

## For-MIAFLRIVAQLGARAARWAWANKDRVLGWIRDGMAIDWIINKINDMVS [Thucin A1]
Proteinase K
  residual antimicrobial activity after digestion with proteinase K: completely lost its antimicrobial activity
[1]
  MIC: 7.5 µM
[2]
  MIC: 7.5 µM
[3]
  MIC: 1.88 µM
[4]
  MIC: 0.47 µM
[5]
  MIC: 0.47 µM
[6]
  MIC: 15 µM
[7]
  MIC: 7.5 µM
Bacillus subtilis 168
  MIC: 3.75 µM
Bacillus firmus DS-1
  MIC: 3.75 µM
Bacillus siamensis HCX05
  MIC: 3.75 µM
[8]
  MIC: 15 µM
Bacillus cereus UW85
  MIC: 1.88 µM
Rhodococcus sp. ZCH08
  MIC: 15 µM
[9]
  MIC: 1.88 µM
Bacillus simplex SYY08
  MIC: 1.88 µM
Bacillus subtilis Bsn5
  MIC: 3.75 µM
Bacillus pumilus SCG1
  MIC: 3.75 µM
